Tests used:
[1] = tested on: HCT8 enterocytes and HT29-MTX goblet cells (epithelial monolayer) co-cultured with U937 monocytes; assay: Co-culture trans-epithelial electrical resistance (TEER) assay, barrier disruption by heat killed E. coli; assay type: cell-based, human; conditions: staurosporine 100 nM, negative control
Protocol: Assays were performed as described below in trans-well plates where co-cultures of multiple cell types were performed utilizing a permeable membrane to separate cells. In the apical (top) chamber, human colonic epithelial cells, consisting of a mixture of enterocytes and goblet cells, were cultured until cells obtained tight junction formation and barrier function capacity as assessed by measurement of trans-epithelial electrical resistance (TEER). In the basolateral chamber, monocytes were cultured separately. Epithelial cells were primed with inflammatory cytokines.
Cell culture. The HCT8 human enterocyte cell line (ATCC Cat. No. CCL-244) was maintained in RPMI-1640 medium supplemented with 10% fetal bovine serum, 100 IU/ml penicillin, 100 µg/ml streptomycin, 10 µg/ml gentamicin and 0.25 µg/ml amphotericin (cRPMI). HT29-MTX human goblet cells (Sigma-Aldrich (St. Louis, MO; Cat. No. 12040401) were maintained in DMEM medium with 10% fetal bovine serum, 100 IU/ml penicillin, 100 µg/ml streptomycin, 10 µg/ml gentamicin and 0.25 µg/ml amphotericin (cDMEM). Epithelial cells were passaged by trypsinization and were used between 5 and 15 passages following thawing from liquid nitrogen stocks. U937 monocytes (ATCC Cat. No. 700928) were maintained in cRPMI medium as a suspension culture, and split by dilution as needed to maintain cells between 5×10^5 and 2×10^6 cells/ml. U937 cells were used up to passage 18 following thawing from liquid nitrogen stocks.
Epithelial cell culture. A mixture of HCT8 enterocytes and HT29-MTX goblet cells were plated at a 9:1 ratio, respectively, in the apical chamber of the transwell plate as described previously (Berget et al., 2017, Int J Mol Sci, 18:1573; Beduneau et al., 2014, Eur J Pharm Biopharm, 87:290-298). […] Epithelial cells were trypsinized from culture flasks and viable cells determined by trypan blue counting. […]
Co-culture assay. […] Trans-epithelial electrical resistance (TEER) readings were measured after the IFN-γ treatment and were used as the pre-treatment TEER values. […]

[2] = tested on: HCT8 enterocyte and HT29-MTX goblet cell lines; assay: Oris Cell Migration assay (epithelial cell wound healing); assay type: cell-based, human; conditions: 48 hours; SG-14 1 μg/ml, EGF 30 ng/ml, staurosporine 100 nM; FIG. 5
From the text: The 96 well Oris Cell Migration assay containing plugs preventing cell attachment in the center of each well was used according to the manufacturer's instructions (Platypus Technologies, Madison, WI). The migration assay plates were warmed to room temperature prior to use and plugs were removed from 100% confluence wells prior to cell addition. The HCT8 enterocyte and HT29-MTX goblet cell lines were used at a 9:1 ratio with a total of 5×10^4 total cells added per well (4.5×10^4 HCT8 cells and 0.5×10^4 HT29-MTX cells). Cells were incubated at 37° C.+5% CO2 for 24 hours. Plugs were then removed from all control and sample wells. Control wells included cells treated with the diluent vehicle as the blank, 30 ng/ml epidermal growth factor (EGF) as the positive control, and 100 nM staurosporine as the negative control, all diluted in cRPMI. Sample wells contained SG-14 protein at a concentration of 1 μg/ml diluted in cRPMI. 100% and 0% wells were cultured in cRPMI. […] The green fluorescent viability dye […] was added to all wells at a concentration of […] in PBS containing 0.9 mM CaCl2) and 0.5 mM MgCl2, incubated for 30 min at 37° C.+5% CO2, the dye was removed and cells were washed in PBS containing 0.9 mM CaCl2) and 0.5 mM MgCl2 and fluorescence was measured. […] Samples were normalized between 100% and 0% samples and values expressed as a percent growth.

[3] = tested on: DSS model of inflammatory bowel disease; assay: DSS model: colon length and colon weight to length ratio; assay type: in vivo, C57BL/6 mice; conditions: DSS treated mice
Protocol: Eight-week old C57BL/6 mice were housed 5 animals were cage and given food and water ad libitum for 7 days. Following the 7-day acclimation period, treatments were initiated concurrently with addition of 2.5% DSS to the drinking water. […] The mice were treated with 2.5% dextran sodium sulfate (DSS) in their drinking water for 6 days. Treatments were continued with SG-14 or […]-GLP2 twice a day (b.i.d.) in the morning and evening (every 8 and 16 hr) with i.p. injections at 50 nmoles/kg. Fresh 2.5% DSS drinking water was prepared every 2 days. Colon length was measured in mice included in the DSS model described in Example 7. […] The graphs in FIG. 10 and FIG. 11 represent data pooled from the single experiment (n=10).

[4] = parameters: species or system mice; conditions: mouse, in vivo, ip

Molecule: CN[C@@H]1C[C@H]2O[C@@](C)([C@@H]1OC)n1c3ccccc3c3c4c(c5c6ccccc6n2c5c31)C(=O)NC4 [staurosporine, reference compound]
- Effect on TEER (control compound) [1]: drastic decrease in TEER
- Wound healing (percent growth) [2]: suppressing cell proliferation

Molecule: EGF: epidermal growth factor, positive control in wound healing assay
- Wound healing (percent growth) [2]: increasing proliferation

Molecule: Gly2-GLP2: a stable analog of glucagon-like peptide 2 (GLP2); positive control in DSS model (HGDGSFSDEMNTILDNLAARDFINWLIQTKITD; Glucagon-like peptide 2; UniProt P01275 146-178, looked up, variant A2G) [reference compound]
- Colon length ([3]; FIG. 10): significant improvement in colon length
- Ratio between colon weight and length ([3]; FIG. 11): significant reduction

Molecule: fluorescently labeled bovine serum albumin: fluorescently labeled bovine serum albumin used for tracking after i.p. injection
- Time at which protein reached the colon after i.p. delivery [4]: 6 h
